From the supplement of paper PMC8967900 come the findings set out here.
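Further: ALL cell lines in 384-well plates, five doses spanning 10,000-fold, each plate scaled between vehicle and 100 µmol/L benzalkonium chloride controls, sDSS an adapted area-under-curve metric.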

For one experiment, the system named is MOLT-14. The experiment in a line: selective drug sensitivity score (sDSS, relative to normal bone marrow) (sDSS (score)); higher = more potent and effective on the cell line relative to normal bone marrow cells. The conditions noted are these: 72 h.
Turning to `COC12C(COC(N)=O)C3=C(C(=O)C(C)=C(N)C3=O)N1CC1NC12` (stereo in doubt) [Mitomycin_C] (top concentration 10000 nM), the “selective drug sensitivity score” value is -2.86.

With `Cc1c(-c2c(-c3ccc(F)o3)sc3ncnc(O[C@H](Cc4ccccc4OCc4ccnn4CC(F)(F)F)C(=O)O)c23)ccc(OCCN2CCN(C)CC2)c1Cl` (top concentration 1000 nM), the “selective drug sensitivity score” value was found to be 3.06.

Take `Cc1ncc(Cl)cc1NCc1ccc(C(=O)N[C@@H](CC2CCCC2)C(=O)NC2CC2)s1` (top concentration 5000 nM): the “selective drug sensitivity score” value turned out to be 2.96.

As to `CCn1c(-c2nonc2N)nc2c(C#CC(C)(C)O)ncc(OC[C@H]3CCCNC3)c21` (top concentration 10000 nM), the “selective drug sensitivity score” value stood at 1.68.

Regarding `CN(c1ncccc1CNc1nc(Nc2ccc3c(c2)CC(=O)N3)ncc1C(F)(F)F)S(C)(=O)=O` (top concentration 10000 nM), the “selective drug sensitivity score” value was -0.08.

As for `CNc1ncc2cc(-c3cc(NC(=O)NCCC(C)(C)C)c(F)cc3C)c(C)nc2n1` (top concentration 10000 nM), the “selective drug sensitivity score” value is 12.5.

`C[C@@]1(C(=O)Nc2ccc(F)nc2)CCCN1c1nc(Nc2cc(C3CC3)n[nH]2)c2cccn2n1` (top concentration 10000 nM): the “selective drug sensitivity score” value was determined as 12.7.

Consider `Cc1nc(Nc2n[nH]c3c2CN(C(=O)N[C@H](CN(C)C)c2ccccc2)C3(C)C)c2sccc2n1` (top concentration 10000 nM), for which the “selective drug sensitivity score” value was 7.18.

Consider `Cn1cc(-c2[nH]c3cc(NC(=O)[C@H](N)C4CCCCC4)cc4c3c2C=NNC4=O)cn1` (top concentration 10000 nM), for which the “selective drug sensitivity score” value was 2.68.

As for `Cn1cc(-c2ccc(F)c(C(F)(F)F)c2)nc1C1CCN(c2ncnc3[nH]ncc23)CC1` (top concentration 10000 nM), the “selective drug sensitivity score” value was -0.14.

For the compound `O=C(Nc1ccc2[nH]nc(-c3ccncc3)c2c1)[C@@H]1CCN(CC(=O)N2CCN(c3ccc(-c4ncccn4)cc3)CC2)C1` (top concentration 10000 nM), the “selective drug sensitivity score” value is 8.56.

Turning to `CC(C)(C)c1cc(NC(=O)Nc2ccc(Oc3ccnc4[nH]c(=O)cnc34)cc2F)n(-c2ccccc2)n1` (top concentration 25000 nM), the “selective drug sensitivity score” value is -4.58.

Regarding `Nc1ncnc2c1nc(N)n2[C@@H]1O[C@H](CO)[C@@H](O)[C@H]1O` [8-amino-adenosine] (top concentration 50000 nM), the “selective drug sensitivity score” value stood at 5.18.

Turning to `CC(C)[C@@H](CS(=O)(=O)C(C)C)N1C(=O)[C@@](C)(CC(=O)O)C[C@H](c2cccc(Cl)c2)[C@H]1c1ccc(Cl)cc1` [AMG-232] (top concentration 10000 nM), the “selective drug sensitivity score” value stood at 10.1.

As to `CC(C)[C@H](C(=O)Nc1ccc(C(=O)NO)cc1)c1ccccc1` [AR-42] (top concentration 10000 nM), the “selective drug sensitivity score” value is 8.48.

As to `O=C(Nc1c[nH]nc1-c1nc2ccc(CN3CCOCC3)cc2[nH]1)NC1CC1` [AT9283] (top concentration 1000 nM), the “selective drug sensitivity score” value was found to be 13.8.

For the compound `CCN(CCO)CCCOc1ccc2c(Nc3cc(CC(=O)Nc4cccc(F)c4)[nH]n3)ncnc2c1` [AZD1152-HQPA] (top concentration 1000 nM), the “selective drug sensitivity score” value was found to be 17.8.

`Cc1[nH]nc(C(F)(F)F)c1Cc1sc2c(c1C(=O)N1C[C@](C)(O)CO1)c(=O)n(C)c(=O)n2C(C)C` [AZD3965] (top concentration 1000 nM): the “selective drug sensitivity score” value was determined as 0.

A further experiment deals with KOPN-8. The description is as above. Conditions: 72 h.
Consider `COC12C(COC(N)=O)C3=C(C(=O)C(C)=C(N)C3=O)N1CC1NC12` (stereo in doubt) [Mitomycin_C] (top concentration 10000 nM), for which the “selective drug sensitivity score” value amounted to 4.24.

On to `Cc1c(-c2c(-c3ccc(F)o3)sc3ncnc(O[C@H](Cc4ccccc4OCc4ccnn4CC(F)(F)F)C(=O)O)c23)ccc(OCCN2CCN(C)CC2)c1Cl` (top concentration 1000 nM), for which the “selective drug sensitivity score” value turned out to be 13.4.

As for `Cc1ncc(Cl)cc1NCc1ccc(C(=O)N[C@@H](CC2CCCC2)C(=O)NC2CC2)s1` (top concentration 5000 nM), the “selective drug sensitivity score” value was 2.96.

For the compound `CCn1c(-c2nonc2N)nc2c(C#CC(C)(C)O)ncc(OC[C@H]3CCCNC3)c21` (top concentration 10000 nM), the “selective drug sensitivity score” value worked out at 7.08.

Turning to `CN(c1ncccc1CNc1nc(Nc2ccc3c(c2)CC(=O)N3)ncc1C(F)(F)F)S(C)(=O)=O` (top concentration 10000 nM), the “selective drug sensitivity score” value was determined as 1.02.

As for `CNc1ncc2cc(-c3cc(NC(=O)NCCC(C)(C)C)c(F)cc3C)c(C)nc2n1` (top concentration 10000 nM), the “selective drug sensitivity score” value came to 21.3.

Consider `C[C@@]1(C(=O)Nc2ccc(F)nc2)CCCN1c1nc(Nc2cc(C3CC3)n[nH]2)c2cccn2n1` (top concentration 10000 nM), for which the “selective drug sensitivity score” value came to 4.68.

Turning to `Cc1nc(Nc2n[nH]c3c2CN(C(=O)N[C@H](CN(C)C)c2ccccc2)C3(C)C)c2sccc2n1` (top concentration 10000 nM), the “selective drug sensitivity score” value came out at 18.3.

For the compound `Cn1cc(-c2[nH]c3cc(NC(=O)[C@H](N)C4CCCCC4)cc4c3c2C=NNC4=O)cn1` (top concentration 10000 nM), the “selective drug sensitivity score” value was 7.38.

Turning to `Cn1cc(-c2ccc(F)c(C(F)(F)F)c2)nc1C1CCN(c2ncnc3[nH]ncc23)CC1` (top concentration 10000 nM), the “selective drug sensitivity score” value was 9.76.

On to `O=C(Nc1ccc2[nH]nc(-c3ccncc3)c2c1)[C@@H]1CCN(CC(=O)N2CCN(c3ccc(-c4ncccn4)cc3)CC2)C1` (top concentration 10000 nM), for which the “selective drug sensitivity score” value turned out to be 12.9.

As to `CC(C)(C)c1cc(NC(=O)Nc2ccc(Oc3ccnc4[nH]c(=O)cnc34)cc2F)n(-c2ccccc2)n1` (top concentration 25000 nM), the “selective drug sensitivity score” value was determined as 2.22.

Consider `Nc1ncnc2c1nc(N)n2[C@@H]1O[C@H](CO)[C@@H](O)[C@H]1O` [8-amino-adenosine] (top concentration 50000 nM), for which the “selective drug sensitivity score” value came to 7.48.

For `CC(C)[C@@H](CS(=O)(=O)C(C)C)N1C(=O)[C@@](C)(CC(=O)O)C[C@H](c2cccc(Cl)c2)[C@H]1c1ccc(Cl)cc1` [AMG-232] (top concentration 10000 nM), the “selective drug sensitivity score” value was 10.4.

With `CC(C)[C@H](C(=O)Nc1ccc(C(=O)NO)cc1)c1ccccc1` [AR-42] (top concentration 10000 nM), the “selective drug sensitivity score” value came out at 10.6.

`O=C(Nc1c[nH]nc1-c1nc2ccc(CN3CCOCC3)cc2[nH]1)NC1CC1` [AT9283] (top concentration 1000 nM): the “selective drug sensitivity score” value was found to be 10.3.

On to `CCN(CCO)CCCOc1ccc2c(Nc3cc(CC(=O)Nc4cccc(F)c4)[nH]n3)ncnc2c1` [AZD1152-HQPA] (top concentration 1000 nM), for which the “selective drug sensitivity score” value turned out to be 12.1.

As to `Cc1[nH]nc(C(F)(F)F)c1Cc1sc2c(c1C(=O)N1C[C@](C)(O)CO1)c(=O)n(C)c(=O)n2C(C)C` [AZD3965] (top concentration 1000 nM), the “selective drug sensitivity score” value came to 0.

In a further experiment the test system is HPB-ALL. The experiment is described as above. The conditions noted are these: 72 h.
For `COC12C(COC(N)=O)C3=C(C(=O)C(C)=C(N)C3=O)N1CC1NC12` (stereo in doubt) [Mitomycin_C] (top concentration 10000 nM), the “selective drug sensitivity score” value was -1.16.

For the compound `Cc1c(-c2c(-c3ccc(F)o3)sc3ncnc(O[C@H](Cc4ccccc4OCc4ccnn4CC(F)(F)F)C(=O)O)c23)ccc(OCCN2CCN(C)CC2)c1Cl` (top concentration 1000 nM), the “selective drug sensitivity score” value is -2.44.

Regarding `Cc1ncc(Cl)cc1NCc1ccc(C(=O)N[C@@H](CC2CCCC2)C(=O)NC2CC2)s1` (top concentration 5000 nM), the “selective drug sensitivity score” value is 1.36.

Regarding `CCn1c(-c2nonc2N)nc2c(C#CC(C)(C)O)ncc(OC[C@H]3CCCNC3)c21` (top concentration 10000 nM), the “selective drug sensitivity score” value came to 3.98.

For `CN(c1ncccc1CNc1nc(Nc2ccc3c(c2)CC(=O)N3)ncc1C(F)(F)F)S(C)(=O)=O` (top concentration 10000 nM), the “selective drug sensitivity score” value was -1.18.

Turning to `CNc1ncc2cc(-c3cc(NC(=O)NCCC(C)(C)C)c(F)cc3C)c(C)nc2n1` (top concentration 10000 nM), the “selective drug sensitivity score” value came to 2.46.

For `C[C@@]1(C(=O)Nc2ccc(F)nc2)CCCN1c1nc(Nc2cc(C3CC3)n[nH]2)c2cccn2n1` (top concentration 10000 nM), the “selective drug sensitivity score” value is 8.28.

Turning to `Cc1nc(Nc2n[nH]c3c2CN(C(=O)N[C@H](CN(C)C)c2ccccc2)C3(C)C)c2sccc2n1` (top concentration 10000 nM), the “selective drug sensitivity score” value is -1.72.

For `Cn1cc(-c2[nH]c3cc(NC(=O)[C@H](N)C4CCCCC4)cc4c3c2C=NNC4=O)cn1` (top concentration 10000 nM), the “selective drug sensitivity score” value amounted to 9.68.
